The source made the active and inactive calls. The calls are words filed in the database; no cut-off is given here.
Assays:
[1] = Cytotoxicity against rat PC-12 cells incubated for 24 hrs by MTT assay; format: toxicity, cell-based
PC-12 [2] = assay: Neuroprotective activity against corticosterone-induced cell injury in rat PC-12 cells assessed as increase in cell viability at 0.1 to 1 uM incubated for 24 hrs by CCK8 assay; format: functional, cell-based; details: dose 0.1-1 µM
PC-12 [3] = assay: Neuroprotective activity against corticosterone-induced cell injury in rat PC-12 cells assessed as increase in cell viability at 0.01 to 1 uM incubated for 24 hrs by CCK8 assay; format: functional, cell-based; details: dose 0.01-1 µM
[4] = Toxicity in zebrafish embryo assessed as morphological changes at 0.1 to 10 uM administered with compound starting from 6 hours fertilization and measured at 48 to 120 hours post fertilization; parameters: species or system Danio rerio; details: in vivo, dose lower 0.1 µM, time lower 42 hrs, dose upper 10 µM, time upper 114 hrs
[5] = Toxicity in C57 mouse assessed as effect on liver structure at 5 to 10 mg/kg administered continuously for 2 weeks by H and E staining based analysis; format: organism-based; details: in vivo, 336 h, dose 5-10 mg/kg
[6] = Toxicity in C57 mouse assessed as effect on liver pathology at 5 to 10 mg/kg administered continuously for 2 weeks by H and E staining based analysis; format: organism-based; details: in vivo, 336 h, dose 5-10 mg/kg
[7] = Toxicity in C57 mouse assessed as effect on kidney size at 5 to 10 mg/kg administered continuously for 2 weeks by H and E staining based analysis; format: organism-based; details: in vivo, 336 h, dose 5-10 mg/kg
[8] = Toxicity in C57 mouse assessed as effect on kidney pathology at 5 to 10 mg/kg administered continuously for 2 weeks by H and E staining based analysis; format: organism-based; details: in vivo, 336 h, dose 5-10 mg/kg
[9] = Toxicity in C57 mouse assessed as effect on lung morphology at 5 to 10 mg/kg administered continuously for 2 weeks by H and E staining based analysis; format: organism-based; details: in vivo, 336 h, dose 5-10 mg/kg
[10] = Toxicity in C57 mouse assessed as effect on lung size at 5 to 10 mg/kg administered continuously for 2 weeks by H and E staining based analysis; format: organism-based; details: in vivo, 336 h, dose 5-10 mg/kg
[11] = Toxicity in C57 mouse assessed as effect on lung pathology at 5 to 10 mg/kg administered continuously for 2 weeks by H and E staining based analysis; format: organism-based; details: in vivo, 336 h, dose 5-10 mg/kg
[12] = Toxicity in C57 mouse assessed as effect on heart structure at 5 to 10 mg/kg administered continuously for 2 weeks by H and E staining based analysis; format: organism-based; details: in vivo, 336 h, dose 5-10 mg/kg
[13] = Toxicity in C57 mouse assessed as necrosis in heart at 5 to 10 mg/kg administered continuously for 2 weeks by H and E staining based analysis; format: organism-based; details: in vivo, 336 h, dose 5-10 mg/kg
[14] = Toxicity in C57 mouse assessed as effect on spleen size at 5 to 10 mg/kg administered continuously for 2 weeks by H and E staining based analysis; format: organism-based; details: in vivo, 336 h, dose 5-10 mg/kg
[15] = Toxicity in C57 mouse assessed as necrosis in spleen at 5 to 10 mg/kg administered continuously for 2 weeks by H and E staining based analysis; format: organism-based; details: in vivo, 336 h, dose 5-10 mg/kg
Mus musculus [16] = assay: Antidepressant activity in chronic unpredictable mild stress induced depressive C57 mouse model assessed as appearance of well arranged neuronal cells in hippocampus at 5 to 10 mg/kg administered continuously for 2 weeks post 5 weeks of chronic unpredictable mild stress by H and E staining based analysis; format: functional, organism-based; details: dose 5-10 mg/kg
Mus musculus [17] = assay: Antidepressant activity in chronic unpredictable mild stress induced depressive C57 mouse model assessed as reduction in neuronal cell damage in hippocampus at 5 to 10 mg/kg administered continuously for 2 weeks post 5 weeks of chronic unpredictable mild stress by H and E staining based analysis; format: functional, organism-based; details: dose 5-10 mg/kg
Mus musculus [18] = assay: Antidepressant activity in reserpine induced depressive mouse model assessed as 5-HT level in brain at 5 mg/kg preadministered with reserpine for 3 days followed by compound addition from day 4 to 10 by LC-MS analysis (reference value: 186.46 ng/ml); format: functional; details: time 7 day

O=C1c2ccccc2-c2nccc3cc(OCCCO[N+](=O)[O-])cc1c23
IC50 at 24 h [1]: > 10 µM | Activity (PC-12 [2]): Active | Activity (PC-12 [3]): Active | Activity [4]: Non-Toxic | Activity [5]: Non-Toxic | Activity [6]: Non-Toxic | Activity [7]: Non-Toxic | Activity [8]: Non-Toxic | Activity [9]: Non-Toxic | Activity [10]: Non-Toxic | Activity [11]: Non-Toxic | Activity [12]: Non-Toxic | Activity [13]: Non-Toxic | Activity [14]: Non-Toxic | Activity [15]: Non-Toxic | Activity (Mus musculus [16]): Active | Activity (Mus musculus [17]): Active | Activity (Mus musculus [18]): 508.39 ng/mL

Source: ChEMBL document CHEMBL5584347, “Development of Nitric Oxide Releasing Oxoisoaporphines with Antidepressant Activities by Simultaneously Regulating MAO-A and SERT” (J Med Chem, 2024)
